Assay results: US10501472B2, “Method to isolate inoscavin a from Fulviformes fastuosus and medicinal preparation thereof to treat rhabdomyosarcoma cancer conditions” (University of Colombo, priority 2015, dated 2019)
Entries after “also recorded” stand apart in the source; their conditions may differ. Read-outs that look alike come from different tables or passages of the source.

Legend:
[1] = system: RD cells; test: Microscopic examination of morphological changes of treated cells; format: cell-based, human; conditions: highest concentration 50 ng/mL, 24 hours
Experimental: The morphological changes of RD cells and CC-1 cells after the treatment with different concentrations of the test solution over 24 hours were detected by microscopic examination of cells. Morphological changes were compared with the negative and positive controls under fluorescence microscope.

[2] = system: CC-1 cell line (normal epithelial cells); test: MTT assay, cytotoxicity against normal CC-1 cell line; format: cell-based, mice; conditions: CC50 in CC-1 cells / IC50 in RD cells
Experimental: (§1) RD and CC-1 cell lines were cultured in DMEM supplemented with 10% heat inactivated fetal bovine serum (FBS), 3% glutamine, sodium bicarbonate and antibiotic (penicillin/streptomycin). The cells were incubated at 37° C. in a humidified CO2 incubator.
Antiproliferative activities of inoscavin A against RD and CC-1 cells were determined using MTT (3, 4, 5-(dimethyl-thiazol-2-yl) 2-5-diphenyl tetrazolium bromide) assay. Metabolically active cells reduce MTT in to purple colored formazan crystals. Adherent cell lines were transferred with 0.12% trypsin and 0.5% EDTA and cells (2×10^5 cells/well) were seeded in 24-well plates and incubated overnight with 1 mL of the DMEM medium described above. […]
In all experiments, cycloheximide (5 mM, 50 μl) was used as the positive control and negative control contained 0.25% DMSO in growth media. […] The remaining formazan crystals were solubilized with 750 μl of 0.05 M HCl (in 2-propanol) and absorbance was measured at 570 nm. Percentage cell viability was determined using the equation below.
The net absorbance from the wells of the untreated cells (negative control) was taken as the 100% viability. IC50 of the test solution against RD cells was determined by regression analysis of the corresponding dose response curve. CC50 of the test solution against CC-1 cell line was also calculated using the regression analysis. […]

[3] = system: RD cell line (human rhabdomyosarcoma); test: MTT assay, antiproliferative activity against RD cell line; format: cell-based; conditions: for IC50: Homo sapiens, RD, MTT, 24 hour treatment
Experimental: as §1
Antiproliferative activities of inoscavin A against RD and CC-1 cells were determined using MTT (3, 4, 5-(dimethyl-thiazol-2-yl) 2-5-diphenyl tetrazolium bromide) assay. Metabolically active cells reduce MTT in to purple colored formazan crystals. Adherent cell lines were transferred with 0.12% trypsin and 0.5% EDTA and cells (2×10^5 cells/well) were seeded in 24-well plates and incubated overnight with 1 mL of the DMEM medium described above. The stock solution of inoscavin A was prepared in DMSO at a concentration of 1 mg/ml and subsequently diluted up to 1000 ng/ml in order to prepare the working standards. The resulting monolayers of RD cells and CC-1 cells (70% confluence) were treated with different concentrations of the test solution and incubated for 24 hours at 37° C.
In all experiments, cycloheximide (5 mM, 50 μl) was used as the positive control and negative control contained 0.25% DMSO in growth media. The culture medium was replaced with fresh medium (1 ml) after 24 hours and MTT (5 mg/ml; 100 μl) was added to each well. The cells were incubated at 37° C. for 3 hours and the medium was aspirated carefully. The remaining formazan crystals were solubilized with 750 μl of 0.05 M HCl (in 2-propanol) and absorbance was measured at 570 nm. Percentage cell viability was determined using the equation below.
The net absorbance from the wells of the untreated cells (negative control) was taken as the 100% viability. IC50 of the test solution against RD cells was determined by regression analysis of the corresponding dose response curve. CC50 of the test solution against CC-1 cell line was also calculated using the regression analysis. Safety of the compound for normal cells was determined in terms of selectivity index (SI) by calculating the ratio of CC50/IC50. SI value>2 is considered as safe.

[4] = system: RD cells; test: Ethidium bromide/acridine orange staining for apoptosis; format: cell-based, human; conditions: 24 hours
Experimental: Ethidium bromide and acridine orange staining were performed to investigate the apoptosis induced by inoscavin A against RD cells. Ethidium bromide (EB) is only occupied by cells with damaged cell membranes. Acridine orange (AO) permeates via both live and dead cells. Cells were seeded in chamber slides and the confluent layer was treated with the test solution containing inoscavin A at different concentrations for 24 hours at 37° C. as described previously. The adherent cells were washed with 200 μL of PBS and 2 μL of the dye mixture containing ethidium bromide ([…]) and acridine orange ([…]) was placed on each well of the chamber slide. Chamber slides were examined immediately under the fluorescence microscope. Images were photographed using a Nikon D 700 camera connected to the microscope.

- IC50 ([3]; mean of three independent sample preparations, read-out: IC50 against RD cells): 28 nM
- IC50 ([3]; read-out: IC50 against RD cell line): 0.0128 µg/mL
Structure (SMILES): CC1=CC(=O)C2(O1)c1c(cc(/C=C/c3ccc(O)c(O)c3)oc1=O)OC2c1ccc(O)c(O)c1 (stereo not shown) [inoscavin A, 2-(3,4-dihydroxyphenyl)-6-[(E)-2-(3,4-dihydroxyphenyl)ethenyl]-5′-methylspiro[2H-furo[3,2-c]pyran-3,2′-furan]-3′,4-dione]
- morphological changes of RD cells [1]: detached and round shape dead cells
- selectivity index (SI), ratio of CC50/IC50 [2]: 6185.18
- maximum inhibition of cell growth ([3]; RD cells, concentrations over 60 ng/mL to 100 ng/mL): 75%
- antiproliferative activity relative to mangiferin ([3]; RD cells, inoscavin A versus mangiferin): approximately 2500 times
- apoptosis induction (AO/EB staining) [4]: confirmed the apoptosis induced by inoscavin A; also recorded: mediated through apoptosis
